#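 Each compound was tested at five concentrations against cells in 96-well plates for 48 hours. GI50: concentration for 50% inhibition of growth. TGI: total growth inhibition.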
# Assays:
# Assay in all cases: NCI anticancer screen, dose series, 48 h
# [1] = tested on: A549 NSCLC
# [2] = tested on: ACHN renal
# [3] = tested on: HT29 colon
# [4] = tested on: SN12C renal
# [5] = tested on: M14 melanoma
# [6] = tested on: TK-10 renal
# [7] = tested on: MCF7 breast
# [8] = tested on: HL-60(TB) leukemia
# [9] = tested on: 786-0 renal
# [10] = tested on: SW-620 colon
# [11] = tested on: UACC-62 melanoma
# [12] = tested on: UO-31 renal
# [13] = tested on: CCRF-CEM leukemia
# [14] = tested on: SNB-19 CNS
# [15] = tested on: DU-145 prostate
# [16] = tested on: HCT-15 colon
# [17] = tested on: UACC-257 melanoma
# [18] = tested on: A498 renal
# [19] = tested on: CAKI-1 renal
# [20] = tested on: NCI/ADR-RES ovarian
# [21] = tested on: MDA-MB-435
# [22] = tested on: OVCAR-5 ovarian
# [23] = tested on: HCC-2998 colon
# [24] = tested on: EKVX NSCLC
# [25] = tested on: PC-3 prostate
# [26] = tested on: U251 CNS
# [27] = tested on: HOP-62 NSCLC
# [28] = tested on: SF-539 CNS
# [29] = tested on: SK-OV-3 ovarian
# [30] = tested on: K-562 leukemia
# [31] = tested on: HCT-116 colon
# [32] = tested on: KM12 colon
# [33] = tested on: HOP-92 NSCLC
# [34] = tested on: SK-MEL-28 melanoma
# [35] = tested on: NCI-H460 lung
# [36] = tested on: IGROV1 ovarian
# [37] = tested on: SR leukemia
# [38] = tested on: SK-MEL-2 melanoma
# [39] = tested on: MOLT-4 leukemia
# [40] = tested on: RPMI-8226 leukemia
# [41] = tested on: LOX IMVI melanoma
# [42] = tested on: SK-MEL-5 melanoma
# [43] = tested on: MALME-3M melanoma
# [44] = tested on: NCI-H226 lung
# [45] = tested on: OVCAR-3 ovarian
# [46] = tested on: SF-295 CNS
# [47] = tested on: HS 578T breast
# [48] = tested on: COLO 205 colon
# [49] = tested on: SF-268 CNS
# [50] = tested on: NCI-H522 lung
# [51] = tested on: SNB-75 CNS
# [52] = tested on: BT-549 breast
# [53] = tested on: OVCAR-8 ovarian
# [54] = tested on: RXF 393 renal
# [55] = tested on: OVCAR-4 ovarian
# [56] = tested on: NCI-H23 lung
structure (smiles),measurement,setting,value
c1cc(-c2ccc(-c3ccc(C4=NC5CCCCC5N4)cc3)o2)ccc1C1=NC2CCCCC2N1 (stereo not given),TGI,[1],3.14 µM
same,TGI,[2],5.7 µM
same,TGI,[3],2.89 µM
same,TGI,[4],3.03 µM
same,TGI,[5],3.01 µM
same,TGI,[6],16.4 µM
same,TGI,[7],2.53 µM
same,TGI,[8],4.86 µM
same,TGI,[9],2.81 µM
same,TGI,[10],> 100 µM
same,TGI,[11],3.14 µM
same,TGI,[12],6.89 µM
same,TGI,[13],> 100 µM
same,TGI,[14],2.8 µM
same,TGI,[15],3.33 µM
same,TGI,[16],79.4 µM
same,TGI,[17],3.28 µM
same,TGI,[18],9.04 µM
same,TGI,[19],> 100 µM
same,TGI,[20],> 100 µM
same,TGI,[21],4.84 µM
same,TGI,[22],4.55 µM
same,TGI,[23],2.56 µM
same,TGI,[24],3.42 µM
same,TGI,[25],2.78 µM
O=C(CCCN1CCOCC1)Nc1ccc(Cn2nnc3c2C(=O)c2nnn(Cc4ccc(NC(=O)CCCN5CCOCC5)cc4)c2C3=O)cc1,GI50,[26],1.95 µM
same,TGI,[26],3.74 µM
same,GI50,[27],> 100 µM
same,TGI,[27],> 100 µM
same,GI50,[1],> 100 µM
same,TGI,[1],> 100 µM
same,GI50,[2],> 100 µM
same,TGI,[2],> 100 µM
same,GI50,[28],2.17 µM
same,TGI,[28],4.71 µM
same,GI50,[3],3.31 µM
same,TGI,[3],8.9 µM
same,GI50,[29],> 100 µM
same,TGI,[29],> 100 µM
same,GI50,[4],1.79 µM
same,TGI,[4],3.67 µM
same,GI50,[5],4.59 µM
same,TGI,[5],43.6 µM
same,GI50,[6],> 100 µM
same,TGI,[6],> 100 µM
same,GI50,[30],4.28 µM
same,TGI,[30],> 100 µM
same,GI50,[7],1.03 µM
same,TGI,[7],2.77 µM
same,GI50,[31],3 µM
same,TGI,[31],11.3 µM
same,GI50,[8],1.51 µM
same,TGI,[8],4.91 µM
same,GI50,[32],6.99 µM
same,TGI,[32],> 100 µM
same,GI50,[33],2.54 µM
same,TGI,[33],5.04 µM
same,GI50,[34],3.93 µM
same,TGI,[34],> 100 µM
same,GI50,[35],2.07 µM
same,TGI,[35],> 100 µM
same,GI50,[9],> 100 µM
same,TGI,[9],> 100 µM
same,GI50,[36],1.95 µM
same,TGI,[36],4.62 µM
same,GI50,[10],2.85 µM
same,TGI,[10],> 100 µM
same,GI50,[37],2.05 µM
same,TGI,[37],7.86 µM
same,GI50,[11],2.06 µM
same,TGI,[11],5.86 µM
same,GI50,[12],> 100 µM
same,TGI,[12],> 100 µM
same,GI50,[13],1.81 µM
same,TGI,[13],6.32 µM
same,GI50,[14],1.84 µM
same,TGI,[14],3.59 µM
same,GI50,[38],2.04 µM
same,TGI,[38],4.15 µM
same,GI50,[15],7.3 µM
same,TGI,[15],> 100 µM
same,GI50,[16],> 100 µM
same,TGI,[16],> 100 µM
same,GI50,[39],1.61 µM
same,TGI,[39],4.85 µM
same,GI50,[17],1.7 µM
same,TGI,[17],3.23 µM
same,GI50,[18],> 100 µM
same,TGI,[18],> 100 µM
same,GI50,[19],> 100 µM
same,TGI,[19],> 100 µM
same,GI50,[40],2.18 µM
same,TGI,[40],7.48 µM
same,GI50,[41],2.01 µM
same,TGI,[41],6.3 µM
same,GI50,[42],1.52 µM
same,TGI,[42],3.55 µM
same,GI50,[43],1.21 µM
same,TGI,[43],2.79 µM
same,GI50,[44],> 100 µM
same,TGI,[44],> 100 µM
same,GI50,[45],0.348 µM
same,TGI,[45],1.54 µM
same,GI50,[20],> 100 µM
same,TGI,[20],> 100 µM
same,GI50,[46],> 100 µM
same,TGI,[46],> 100 µM
same,GI50,[47],2.79 µM
same,TGI,[47],7.76 µM
same,GI50,[48],0.982 µM
same,TGI,[48],2.43 µM
same,GI50,[21],1.65 µM
same,TGI,[21],3.08 µM
same,GI50,[22],> 100 µM
same,TGI,[22],> 100 µM
same,GI50,[49],3.21 µM
same,TGI,[49],12.1 µM
same,GI50,[50],1.38 µM
same,TGI,[50],3.59 µM
same,GI50,[51],1.83 µM
same,TGI,[51],3.24 µM
same,GI50,[52],4.68 µM
same,TGI,[52],18.4 µM
same,GI50,[23],2.62 µM
same,TGI,[23],5.79 µM
same,GI50,[53],3.78 µM
same,TGI,[53],> 100 µM
same,GI50,[54],4.33 µM
same,TGI,[54],38.9 µM
same,GI50,[55],1.25 µM
same,TGI,[55],2.51 µM
same,GI50,[25],3.67 µM
same,TGI,[25],> 100 µM
same,GI50,[56],2.33 µM
same,TGI,[56],5.63 µM

# — PubChem BioAssay (NCI)
